According to patent US20230263822A1, “MODULATION OF FACTOR 11 EXPRESSION” (Ionis Pharmaceuticals, Inc., priority 2008, published 2023):
Strand notation (5' to 3'): a small letter for the sugar, then the base; units joined by * are phosphorothioate-linked, units joined directly phosphodiester-linked; [ ] holds rarer units or linkages, { } end groups; capitals alone tell only the bases. e = 2'-O-(2-methoxyethyl) (MOE); [5mC] = 5-methylcytosine; d = 2'-deoxy (DNA)

Columns and labels:
[1] = Kidney function, BUN, urine protein to creatinine ratio in cynomolgus monkeys (Example 46); assay type: in vivo
Protocol: (§1) Groups, each consisting of two male and two female monkeys, were injected subcutaneously with 25 mg/kg of ISIS 416850, ISIS 449709, ISIS 445522, ISIS 449710, ISIS 449707, ISIS 449711, ISIS 449708, 416858, and ISIS 445531. Antisense oligonucleotide was administered to the monkeys at 25 mg/kg three times per week for week 1 and 25 mg/kg twice per week for weeks 2 to 8. A control group, consisting of two male and two female monkeys was injected subcutaneously with PBS according to the same dosing regimen. Body weights were taken 14 days and 7 days before the start of treatment and were then measured weekly throughout the treatment period. Blood samples were collected 14 days and 5 days before the start of treatment and subsequently several times during the dosing regimen for PT and aPTT measurements, and measurement of various hematologic factors. On day 55, the monkeys were euthanized by exsanguination while under deep anesthesia, and organs harvested for further analysis.
To evaluate the impact of ISIS oligonucleotides on kidney function, urine samples were collected on different days. […] The ratio of urine protein to creatinine in urine samples after antisense oligonucleotide treatment was also calculated for day 49 and results are presented in Table 156. As observed in Tables 155 and 156, there were no significant increases in any of the kidney metabolic markers after antisense oligonucleotide treatment.

[2] = tested on: Factor 11 mRNA; test: Factor 11 mRNA in cynomolgus monkey liver, day 55 (Example 46); assay type: in vivo, cynomolgus monkeys; conditions: cynomolgus monkeys, 25 mg/kg
Protocol: as §1
On day 55, RNA was extracted from liver tissue for real-time PCR analysis of Factor 11 using primer probe set LTS00301. Results are presented as percent inhibition of Factor 11, relative to PBS control.

[3] = Liver function, ALT, AST, bilirubin in cynomolgus monkeys (Example 46); assay type: in vivo; conditions: plasma
Protocol: as §1
Plasma concentrations of alanine transaminase (ALT) and aspartate transaminase (AST) were measured and the results are presented in Tables 152 and 153 expressed in IU/L. Plasma levels of bilirubin were also measured and results are presented in Table 154 expressed in mg/dL. As observed in Tables 152-154, there were no significant increases in any of the liver metabolic markers after antisense oligonucleotide treatment.

[4] = tested on: IL-1β, IL-6, IFN-γ, TNF-α, IL-8, MIP-1α, MCP-1, MIP-1β, RANTES; test: Cytokine and chemokine assays in cynomolgus monkeys (Example 46); assay type: in vivo
Protocol: as §1
Blood samples obtained from all monkey groups were sent to Pierce Biotechnology (Woburn, Mass.) for measurements of chemokine and cytokine levels. Levels of IL-1β, IL-6, IFN-γ, and TNF-α were measured using the respective primate antibodies and levels of IL-8, MIP-1α, MCP-1, MIP-1β and RANTES were measured using the respective cross-reacting human antibodies. Measurements were taken 14 days before the start of treatment and on day 55, when the monkeys were euthanized.

[5] = Hematology assays in cynomolgus monkeys (Example 46); assay type: in vivo
Protocol: as §1

[6] = day-14 (before start of treatment)

ISIS 445522: 5-8-5 or 6-8-6 MOE microwalk gapmer (Table 44) (antisense eG*e[5mC]*eA*e[5mC]*eA*dG*dT*dT*dT*d[5mC]*dT*dG*dG*e[5mC]*eA*eG*eG*e[5mC])
BUN levels ([1]; Day 31): 22 mg/dL
BUN levels ([1]; Day 55): 22 mg/dL
BUN levels ([1]; Day −5 (before start of treatment)): 22 mg/dL
BUN levels ([1]; Day −14 (before start of treatment)): 23 mg/dL
Urine protein/creatinine ratio ([1]; urine, day 49): 0.01
Factor 11 mRNA in liver vs PBS control [2]: significant reduction of Factor 11 mRNA
ALT ([3]; Day 31): 40 IU/L
AST ([3]; Day 31): 46 IU/L
Bilirubin ([3]; Day 31): 0.14 mg/dL
ALT ([3]; Day 55): 60 IU/L
AST ([3]; Day 55): 79 IU/L
Bilirubin ([3]; Day 55): 0.18 mg/dL
ALT ([3]; Day −5): 45 IU/L
AST ([3]; Day −5): 47 IU/L
Bilirubin ([3]; Day −5): 0.20 mg/dL
ALT ([3]; Day −14): 43 IU/L
AST ([3]; Day −14): 62 IU/L
Bilirubin ([3]; Day −14): 0.24 mg/dL
IFN-γ level ([4]; day 55): 83 pg/mL
IL-1ß level ([4]; day 55): 341 pg/mL
IL-6 level ([4]; day 55): 2 pg/mL
IL-8 level ([4]; day 55): 100 pg/mL
MCP-1 level ([4]; day 55): 592 pg/mL
MIP-1ß level ([4]; day 55): 63 pg/mL
MIP-1α level ([4]; day 55): 22 pg/mL
RANTES level ([4]; day 55): 16154 pg/mL
TNF-α level ([4]; day 55): 18 pg/mL
IFN-γ level [4, 6]: 172 pg/mL
IL-1ß level [4, 6]: 188 pg/mL
IL-6 level [4, 6]: 5 pg/mL
IL-8 level [4, 6]: 32 pg/mL
MCP-1 level [4, 6]: 297 pg/mL
MIP-1ß level [4, 6]: 27 pg/mL
MIP-1α level [4, 6]: 22 pg/mL
RANTES level [4, 6]: 3477 pg/mL
TNF-α level [4, 6]: 16 pg/mL
HCT ([5]; Day 17): 41%
MCH ([5]; Day 17): 22.8 pg
MCHC ([5]; Day 17): 30.9 g/dL
MCV ([5]; Day 17): 74 fL
RBC count ([5]; Day 17): 5.6e+06 µL⁻¹
WBC count ([5]; Day 17): 11000 µL⁻¹
hemoglobin content ([5]; Day 17): 12.7 g/dL
monocytes ([5]; Day 17): 3.6%
neutrophils ([5]; Day 17): 81%
platelet count ([5]; Day 17): 521 ×100/μL
HCT ([5]; Day 31): 43%
MCH ([5]; Day 31): 22.4 pg
MCHC ([5]; Day 31): 30.0 g/dL
MCV ([5]; Day 31): 75 fL
RBC count ([5]; Day 31): 5.8e+06 µL⁻¹
WBC count ([5]; Day 31): 13000 µL⁻¹
hemoglobin content ([5]; Day 31): 12.9 g/dL
monocytes ([5]; Day 31): 3.9%
neutrophils ([5]; Day 31): 66%
platelet count ([5]; Day 31): 425 ×100/μL
HCT ([5]; Day 45): 41%
MCH ([5]; Day 45): 22.4 pg
MCHC ([5]; Day 45): 30.7 g/dL
MCV ([5]; Day 45): 73 fL
RBC count ([5]; Day 45): 5.7e+06 µL⁻¹
WBC count ([5]; Day 45): 10000 µL⁻¹
hemoglobin content ([5]; Day 45): 12.6 g/dL
monocytes ([5]; Day 45): 4.4%
neutrophils ([5]; Day 45): 69%
platelet count ([5]; Day 45): 403 ×100/μL
HCT ([5]; Day 55): 39%
MCH ([5]; Day 55): 22.2 pg
MCHC ([5]; Day 55): 31.0 g/dL
MCV ([5]; Day 55): 72 fL
RBC count ([5]; Day 55): 5.4e+06 µL⁻¹
WBC count ([5]; Day 55): 11000 µL⁻¹
hemoglobin content ([5]; Day 55): 12.0 g/dL
monocytes ([5]; Day 55): 3.0%
neutrophils ([5]; Day 55): 125%
platelet count ([5]; Day 55): 333 ×100/μL
HCT ([5]; Day-5): 42%
MCH ([5]; Day-5): 22.5 pg
MCHC ([5]; Day-5): 30.4 g/dL
MCV ([5]; Day-5): 74 fL
RBC count ([5]; Day-5): 5.6e+06 µL⁻¹
WBC count ([5]; Day-5): 9000 µL⁻¹
hemoglobin content ([5]; Day-5): 12.7 g/dL
monocytes ([5]; Day-5): 2.3%
neutrophils ([5]; Day-5): 84%
platelet count ([5]; Day-5): 512 ×100/μL
HCT ([5]; Day-14): 42%
MCH ([5]; Day-14): 22.6 pg
MCHC ([5]; Day-14): 31.4 g/dL
MCV ([5]; Day-14): 72 fL
RBC count ([5]; Day-14): 5.9e+06 µL⁻¹
WBC count ([5]; Day-14): 10000 µL⁻¹
hemoglobin content ([5]; Day-14): 13.3 g/dL
monocytes ([5]; Day-14): 2.1%
neutrophils ([5]; Day-14): 61%
platelet count ([5]; Day-14): 433 ×100/μL
